{
  "source": "patent US20230082555A1",
  "about": "“Composition for Medium” (Kataoka Corporation, priority 2019, published 2023)",
  "system": "human fibroblasts",
  "test": "Presence or absence of fatty acids in serum-free induction medium, Ucp1 and Ckmt1 by QRT-PCR (Test Example E)",
  "assay_type": "cell-based",
  "conditions": "brown adipocytes induced from fibroblasts; FIGS. 8 and 9",
  "protocol": "After the human fibroblasts reached 80% to 90% confluency, the medium in the dish was replaced with SFBAM which is serum-free or SFBAM in which albumin and fatty acid components were changed to the combinations shown in Table 10 of the compounds shown in Table 9, both of which contain all the compounds shown in Table 3, and the human fibroblasts were cultured in said respective media for three weeks (Examples 11 to 14). The medium was changed every three days. Thereafter, the expression amounts of marker genes, Ucp1 and Ckmt1, specific for brown adipose tissue were quantified by QRT-PCR. Symbol 1 (control) in the figures represents the result in SFBAM without the compounds shown in Table 3 necessary for induction into brown adipocytes.",
  "data": [
    {"substance": "fatty acid-unbound albumin: Fatty acid-free albumin, in which a fatty acid is removed from an albumin (017-15146, FUJIFILM Wako)", "values": [
      {"measurement": "Expression levels of Ucp1 genes versus induction with fatty acid-bound albumin", "result": "much higher"}
    ]}
  ]
}
